Measurements as given in patent publication US7001897B2, “1-methylcarbapenem derivatives” (Sankyo Company, Limited, priority 2000, dated 2006).
In brackets after ≈: the same amount, converted by molar mass. Where a name gives a salt, the structure may show the parent alone. Read-outs that look alike come from different tables or passages of the source.

Experiments:
Streptococcus pneumoniae = assay: In vitro antibacterial activity, agar plate dilution method; assay type: cell-based; settings: read-out: Minimum Concentration to Inhibit Growth of the Employed Bacteria B
Experimental: (§1) To assess the antibacterial activities of the compounds, the minimum concentrations (μg/ml) of the compounds to inhibit growth of various pathogenic bacteria were determined by agar plate dilution method. In this Table, the employed bacteria A, B, and C were as follow: • A: Staphylococcus aureus • B: Streptococcus pneumoniae • C: Haemophilis influenzae strain 9787 (a strain producing β-lactamase)

Staphylococcus aureus = assay: as above; assay type: cell-based; settings: read-out: Minimum Concentration to Inhibit Growth of the Employed Bacteria A
Experimental: as §1

[1] = test system: Haemophilis influenzae strain 9787 (a strain producing β-lactamase); assay: as above; assay type: cell-based; settings: read-out: Minimum Concentration to Inhibit Growth of the Employed Bacteria C
Experimental: as §1

[2] = Pharmacokinetics, plasma concentration by bioassay after subcutaneous injection; assay type: in vivo; settings: mouse, sc, mice (ddY, male), 20 mg/kg subcutaneous; for AUC: read-out: AUCall (area under the concentration-time curve in plasma); for Cmax: read-out: Cmax (maximal plasma concentration); for half-life: read-out: T1/2 (half-life in plasma concentration) (converted)
Experimental: The compounds of the present invention compound (20 mg/kg) was subcutaneously injected to mice (n=3, ddY, male, purchased from SLC Japan). The plasma concentration of the compound was determined by a bioassay method at 5, 15, and 30 min, and 1, 1.5, and 2 hr after administration. In the Table, Cmax, T1/2, and AUCall indicate the maximal plasma concentration, half-life in plasma concentration, and area under the concentration-time curve in plasma of the compound, respectively.

[3] = test system: S. pneumoniae 9605 (PRSP); assay: In vivo antibacterial activity, intraperitoneal infection of mice; settings: Streptococcus pneumoniae, 168 h; male ddY mice, i.p. S. pneumoniae 9605 (PRSP), single subcutaneous treatment, Probit method from survival rates 7 days after infection
Experimental: Male ddY mice of 4 weeks old (purchased from SLC Japan) were intraperitoneally inoculated with S. pneumoniae 9605 (PRSP) at a volume of 0.2 ml (containing 5% mucin, 1-5×10^3 colony forming unit (cfu)/mouse). Immediately after the mice were infected, they were subcutaneously treated with the test compound singly at a volume of 0.1 ml. Seven mice were used per group. A solution of the test compound prepared by 2-step dilution was used for the experiment. ED50 values of the compounds were calculated by the Probit method from survival rates 7 days after infection.

[4] = B: Streptococcus pneumoniae, agar plate dilution
[5] = A: Staphylococcus aureus, agar plate dilution
[6] = C: Haemophilis influenzae strain 9787 (β-lactamase producing), agar plate dilution

Row | SMILES | MIC (Streptococcus pneumoniae; [4]) | MIC (Staphylococcus aureus; [5]) | MIC [1, 6] | also measured
1 | C[C@@H](O)[C@H]1C(=O)N2C(C(=O)[O-])=C(SC3CN(c4nc(C(N)=O)cs4)C3)[C@H](C)[C@H]12.[Na+] [Example 3, (1R,5S,6S)-2-[1-(4-Carbamoyl-1,3-thiazol-2-yl)azetidin-3-yl]thio-6-[(R)-1-hydroxyethyl]-1-methylcarbapen-2-em-3-carboxylic acid sodium salt] | 0.2 µg/mL | 0.05 µg/mL | 0.1 µg/mL | AUC [2]: 83900 ng·h/mL; Cmax [2]: 127 µg/mL; half-life [2]: 15 min
2 | C[C@@H](O)[C@H]1C(=O)N2C(C(=O)[O-])=C(SC3CN(c4nc(C#N)cs4)C3)[C@H](C)[C@H]12.[Na+] [Example 4, (1R,5S,6S)-2-[1-(4-Cyano-1,3-thiazol-2-yl)azetidin-3-yl]thio-6-[(R)-1-hydroxyethyl]-1-methylcarbapen-2-em-3-carboxylic acid sodium salt] |  |  |  | MIC (Streptococcus pneumoniae; Streptococcus pneumoniae): 0.2 µg/mL; MIC (Staphylococcus aureus; Staphylococcus aureus): 0.05 µg/mL; MIC [1]: 0.2 µg/mL; AUC ([2]; in vivo): 165000 ng·h/mL; Cmax ([2]; in vivo): 157 µg/mL; half-life ([2]; in vivo): 61.2 min
3 | CNC(=O)c1csc(N2CC(SC3=C(C(=O)[O-])N4C(=O)[C@H]([C@@H](C)O)[C@H]4[C@H]3C)C2)n1.[Na+] [Example 5, (1R,5S,6S)-2-[1-(4-N-Methylcarbamoyl-1,3-thiazol-2-yl)azetidin-3-yl]thio-6-[(R)-1-hydroxyethyl]-1-methylcarbapen-2-em-3-carboxylic acid sodium salt] | 0.2 µg/mL | 0.05 µg/mL | 0.2 µg/mL | 
4 | C[C@@H](O)[C@H]1C(=O)N2C(C(=O)[O-])=C(SC3CN(c4nc(C(=O)N(C)C)cs4)C3)[C@H](C)[C@H]12.[Na+] [Example 6, (1R,5S,6S)-2-[1-(4-N,N-Dimethylcarbamoyl-1,3-thiazol-2-yl)azetidin-3-yl]thio-6-[(R)-1-hydroxyethyl]-1-methylcarbapen-2-em-3-carboxylic acid sodium salt] | 0.2 µg/mL | 0.05 µg/mL | 0.2 µg/mL | 
5 | C[C@@H](O)[C@H]1C(=O)N2C(C(=O)[O-])=C(SC3CN(c4nc(C(=O)N5CCOCC5)cs4)C3)[C@H](C)[C@H]12.[Na+] [Example 11, (1R,5S,6S)-2-[1-(4-Morpholinocarbonyl-1,3-thiazol-2-yl)azetidin-3-yl]thio-6-[(R)-1-hydroxyethyl]-1-methylcarbapen-2-em-3-carboxylic acid sodium salt] |  |  |  | AUC [2]: 40400 ng·h/mL; Cmax [2]: 56.6 µg/mL; half-life [2]: 19.8 min
6 | C[C@@H](O)[C@H]1C(=O)N2C(C(=O)[O-])=C(S[C@@H]3CCN(c4nc(C(N)=O)cs4)C3)[C@H](C)[C@H]12.[Na+] [Example 19, (1R,5S,6S)-2-[(3R)-1-(4-Carbamoyl-1,3-thiazol-2-yl)pyrrolidin-3-yl]thio-6-[(R)-1-hydroxyethyl]-1-methylcarbapen-2-em-3-carboxylic acid sodium salt] | 0.2 µg/mL | 0.05 µg/mL | 0.1 µg/mL | 
7 | C[C@@H](O)[C@H]1C(=O)N2C(C(=O)[O-])=C(SC3CN(c4nc(C(N)=O)co4)C3)[C@H](C)[C@H]12.[Na+] [Example 22, (1R,5S,6S)-2-[1-(4-Carbamoyl-1,3-oxazol-2-yl)azetidin-3-yl]thio-6-[(R)-1-hydroxyethyl]-1-methylcarbapen-2-em-3-carboxylic acid sodium salt] | 0.2 µg/mL | 0.05 µg/mL | 0.1 µg/mL | 
8 | C[C@@H](O)[C@H]1C(=O)N2C(C(=O)[O-])=C(SC3CN(c4nc(C(=O)N5CCC5)cs4)C3)[C@H](C)[C@H]12.[Na+] [Example 24, (1R,5S,6S)-2-[1-(4-Azetidinocarbonyl-1,3-thiazol-2-yl)azetidin-3-yl]thio-6-[(R)-1-hydroxyethyl]-1-methylcarbapen-2-em-3-carboxylic acid sodium salt] | 0.025 µg/mL | ≤ 0.012 µg/mL | 0.05 µg/mL | 
9 | C[C@@H](O)[C@H]1C(=O)N2C(C(=O)[O-])=C(SC3CN(c4nc(C(=O)N5CCSCC5)cs4)C3)[C@H](C)[C@H]12.[Na+] [Example 25, (1R,5S,6S)-2-[1-(4-Thiomorpholinocarbonyl-1,3-thiazol-2-yl)azetidin-3-yl]thio-6-[(R)-1-hydroxyethyl]-1-methylcarbapen-2-em-3-carboxylic acid sodium salt] | 0.1 µg/mL | 0.025 µg/mL | 0.39 µg/mL | 
10 | C[C@@H](O)[C@H]1C(=O)N2C(C(=O)O)=C(SC3CN(c4nc(C(=O)NC5CCNCC5)cs4)C3)[C@H](C)[C@H]12 [Example 56, (1R,5S,6S)-2-{1-[4-(piperidin-4-ylcarbamoyl)-1,3-thiazol-2-yl]azetidin-3-yl}thio-6-[(R)-1-hydroxyethyl]-1-methylcarbapen-2-em-3-carboxylic acid] | 0.2 µg/mL (≈ 0.394 µM) | 0.05 µg/mL (≈ 0.0985 µM) | 0.2 µg/mL (≈ 0.394 µM) | 
11 | C[C@@H](O)[C@H]1C(=O)N2C(C(=O)O)=C(SC3CN(c4nc(C(=O)NC5CNC5)cs4)C3)[C@H](C)[C@H]12 [Example 59, (1R,5S,6S)-2-{1-[4-(azetidin-3-ylcarbamoyl)-1,3-thiazol-2-yl]azetidin-3-yl}thio-6-[(R)-1-hydroxyethyl]-1-methylcarbapen-2-em-3-carboxylic acid] | 0.2 µg/mL (≈ 0.417 µM) | ≤ 0.012 µg/mL | 0.2 µg/mL (≈ 0.417 µM) | ED50 [3]: 1.08 mg/kg
12 | C[C@@H](O)[C@H]1C(=O)N2C(C(=O)O)=C(SC3CN(c4nc(C(=O)NCCN)cs4)C3)[C@H](C)[C@H]12 [Example 61, (1R,5S,6S)-2-{1-[4-((2-aminoethyl)carbamoyl)-1,3-thiazol-2-yl]azetidin-3-yl}thio-6-[(R)-1-hydroxyethyl]-1-methylcarbapen-2-em-3-carboxylic acid] | 0.2 µg/mL (≈ 0.428 µM) | 0.025 µg/mL (≈ 0.0535 µM) | 0.39 µg/mL (≈ 0.834 µM) | ED50 [3]: 1.79 mg/kg
13 | C[C@@H](O)[C@H]1C(=O)N2C(C(=O)O)=C(SC3CN(c4nc(CNC(=O)c5ccccc5)cs4)C3)[C@H](C)[C@H]12 [Example 69, (1R,5S,6S)-2-{1-[4-(benzoylaminomethyl)-1,3-thiazol-2-yl]azetidin-3-yl}thio-6-[(R)-1-hydroxyethyl]-1-methylcarbapen-2-em-3-carboxylic acid sodium salt] | ≤ 0.012 µg/mL | ≤ 0.012 µg/mL | 0.78 µg/mL | 
14 | C[C@@H](O)[C@H]1C(=O)N2C(C(=O)O)=C(SC3CN(c4nc(CNC(=O)c5cccs5)cs4)C3)[C@H](C)[C@H]12 [Example 71, (1R,5S,6S)-2-(1-{4-[(Thiophene-2-carbonylamino)methyl]-1,3-thiazol-2-yl}azetidin-3-yl)thio-6-[(R)-1-hydroxyethyl]-1-methylcarbapen-2-em-3-carboxylic acid sodium salt] | ≤ 0.012 µg/mL | ≤ 0.012 µg/mL | 0.39 µg/mL | 
15 | C[C@@H](O)[C@H]1C(=O)N2C(C(=O)O)=C(SC3CN(c4nc(CNC(=O)c5ccco5)cs4)C3)[C@H](C)[C@H]12 [Example 72, (1R,5S,6S)-2-(1-{4-[(furan-2-carbonylamino)methyl]-1,3-thiazol-2-yl}azetidin-3-yl)thio-6-[(R)-1-hydroxyethyl]-1-methylcarbapen-2-em-3-carboxylic acid sodium salt] | 0.025 µg/mL | ≤ 0.012 µg/mL | 0.2 µg/mL | 
16 | C[C@@H](O)[C@H]1C(=O)N2C(C(=O)O)=C(SC3CN(c4nc(C(=O)N[C@H]5CCNC5)co4)C3)[C@H](C)[C@H]12 [Example 80, (1R,5S,6S)-2-{1-[4-((3S)-pyrrolidin-3-ylcarbamoyl)-1,3-oxazol-2-yl]azetidin-3-yl}thio-6-[(R)-1-hydroxyethyl]-1-methylcarbapen-2-em-3-carboxylic acid] | 0.2 µg/mL (≈ 0.419 µM) | 0.025 µg/mL (≈ 0.0524 µM) | 0.39 µg/mL (≈ 0.817 µM) | 
17 | C[C@@H](O)[C@H]1C(=O)N2C(C(=O)O)=C(SC3CN(c4nc(C(=O)N[C@@H]5CCNC5)co4)C3)[C@H](C)[C@H]12 [Example 81, (1R,5S,6S)-2-{1-[4-((3R)-pyrrolidin-3-ylcarbamoyl)-1,3-oxazol-2-yl]azetidin-3-yl}thio-6-[(R)-1-hydroxyethyl]-1-methylcarbapen-2-em-3-carboxylic acid] | 0.2 µg/mL (≈ 0.419 µM) | ≤ 0.012 µg/mL | 0.39 µg/mL (≈ 0.817 µM) | 
